Strand notation (5' to 3'): a small letter for the sugar, then the base; units joined by * are phosphorothioate-linked, units joined directly phosphodiester-linked; [ ] holds rarer units or linkages, { } end groups; capitals alone tell only the bases. k = constrained ethyl (cEt); [5mC] = 5-methylcytosine; d = 2'-deoxy (DNA)
Tested on: Yap1 mRNA
Assay: Antisense inhibition of human Yap1 in A-431 cells by cEt gapmers, single dose (Example 2, RTS4814)
Type: cell-based
Outline: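 A-431 cells (5,000/well) received 2,000 nM oligonucleotide by free uptake for about 48 h. Yap1 mRNA was then quantified by RT-qPCR with primer probe set RTS4814, normalized to RIBOGREEN total RNA, and reported as % of untreated control; asterisked values mark oligos inside the amplicon.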

[1] = Table 24, Yap1 mRNA as percent of untreated control, 3-10-3 cEt gapmers targeting SEQ ID NO.: 1, and 2
[2] = Yap1 mRNA as percent of untreated control, A-431 cells, 3-10-3 cEt gapmers targeting SEQ ID NO.: 1, and 2, Table 30
[3] = Yap1 mRNA as percent of untreated control, A-431 cells, 3-10-3 cEt gapmers targeting SEQ ID NO.: 1, and 2, Table 31
[4] = Table 5, A-431 cells, 5,000 cells per well, free uptake, 2,000 nM modified oligonucleotide, approx. 48 hours, RTS4814, normalized to RIBOGREEN, Yap1 mRNA relative to untreated control cells
[5] = Table 18, A-431 cells, 5,000 cells per well, free uptake, 2,000 nM modified oligonucleotide, approx. 48 hours, RTS4814, normalized to RIBOGREEN, Yap1 mRNA as percent of untreated control
[6] = Table 6, A-431 cells, 5,000 cells per well, free uptake, 2,000 nM modified oligonucleotide, approx. 48 hours, RTS4814, normalized to RIBOGREEN, Yap1 mRNA relative to untreated control cells
[7] = Table 22, Yap1 mRNA as percent of untreated control, 3-10-3 cEt gapmers, single dose
[8] = A-431 cells, 5,000 cells per well, free uptake, 2,000 nM modified oligonucleotide, approx. 48 hours, RTS4814, normalized to RIBOGREEN, Table 4, asterisk (*) = targets amplicon region of primer probe set
[9] = Table 33, Yap1 mRNA, percent of untreated control, 3-10-3 cEt gapmers targeting SEQ ID NO.: 1, and 2
[10] = Table 32, Yap1 mRNA, percent of untreated control, 3-10-3 cEt gapmers targeting SEQ ID NO.: 1, and 2
[11] = Table 25, Yap1 mRNA as percent of untreated control, 3-10-3 cEt gapmers targeting SEQ ID NO.: 1, and 2

## 1074217 (antisense kG*kG*kA*dT*dT*dT*dG*dG*dG*d[5mC]*dT*d[5mC]*d[5mC]*kG*kG*k[5mC]) [Compound 1074217]
Table 23, Yap1 mRNA as percent of untreated control, 3-10-3 cEt gapmers, single dose
  YAP1 (% UTC): 74 % UTC

## 1075146 (antisense kG*kT*kA*dT*dT*dA*dA*dG*dG*dG*dA*dT*dT*kT*kT*k[5mC]) [Compound 1075146]
[1]
  YAP1 (% UTC): 8 % UTC

## 1075760 (kG*kA*kG*dA*dA*dA*dA*dA*d[5mC]*dT*dA*d[5mC]*dG*kG*kA*kT; antisense) [compound 1075760]
[2]
  YAP1 (% UTC): 39 % UTC

## 1074481 (kA*kA*kT*dA*dT*dG*dG*dT*d[5mC]*dA*dT*dT*dT*kG*k[5mC]*k[5mC]; antisense) [compound 1074481]
[3]
  YAP1 (% UTC): 14 % UTC

## 1074602 (antisense kT*k[5mC]*k[5mC]*dA*dG*d[5mC]*dT*dA*dA*d[5mC]*dT*d[5mC]*dA*kA*kA*kA) [Compound 1074602]
[1]
  YAP1 (% UTC): 24 % UTC

## 1075217 (kT*kT*kA*dT*dT*dT*dT*dA*d[5mC]*dA*d[5mC]*dG*dA*kA*k[5mC]*kT; antisense) [compound 1075217]
[3]
  YAP1 (% UTC): 71 % UTC

## 716386 (kA*kT*kT*dT*d[5mC]*dT*d[5mC]*d[5mC]*dA*dT*d[5mC]*d[5mC]*dT*kG*kA*kG; antisense) [Compound 716386]
[4]
  YAP1 (% UTC): 60 % UTC

## 1075748 (kG*kT*kA*dA*dA*dT*d[5mC]*dA*dA*dG*dT*dT*dG*k[5mC]*kA*kT; antisense) [Compound 1075748]
[5]
  YAP1 (% UTC): 7 % UTC

## 716558 (k[5mC]*kT*k[5mC]*dT*dT*dA*d[5mC]*dA*dT*d[5mC]*dT*dA*dA*kA*kA*k[5mC]; antisense) [Compound 716558]
[6]
  YAP1 (% UTC): 81 % UTC

## 1074896 (antisense kG*k[5mC]*kA*dA*dA*dG*dT*dT*d[5mC]*d[5mC]*dT*dA*dT*kG*k[5mC]*kT) [compound 1074896]
[2]
  YAP1 (% UTC): 99 % UTC

## 1074792 (kA*kT*k[5mC]*dA*dA*dT*dG*dT*dG*d[5mC]*dT*d[5mC]*d[5mC]*kA*kT*k[5mC]; antisense) [Compound 1074792]
[7]
  YAP1 (% UTC): 4 % UTC

## 1075569 (kG*kT*kA*dG*dA*dA*dA*dG*dG*d[5mC]*dA*dT*dT*kA*kG*kA; antisense) [compound 1075569]
[3]
  YAP1 (% UTC): 45 % UTC

## 716358 (k[5mC]*kG*kA*dG*dG*dG*d[5mC]*dT*dA*d[5mC]*dG*d[5mC]*d[5mC]*k[5mC]*kG*kG; antisense) [Compound 716358]
[8]
  YAP1 (% UTC): 104 % UTC

## 1074961 (antisense kT*k[5mC]*k[5mC]*dT*d[5mC]*d[5mC]*dT*dT*dA*dA*d[5mC]*d[5mC]*d[5mC]*kG*kG*kG) [compound 1074961]
[3]
  YAP1 (% UTC): 93 % UTC

## 1074160 (kG*k[5mC]*kG*dA*dG*d[5mC]*dG*dA*dG*dG*dG*d[5mC]*dT*kA*k[5mC]*kG; antisense) [compound 1074160]
[2]
  YAP1 (% UTC): 86 % UTC

## 1075443 (antisense kG*kA*kT*dT*dA*dA*d[5mC]*dA*dG*dA*dG*d[5mC]*dT*kA*kG*kA) [compound 1075443]
[9]
  YAP1 (% UTC): 29 % UTC

## 716578 (kA*kA*k[5mC]*dT*dT*dT*d[5mC]*dA*d[5mC]*dA*dT*dA*dA*kA*k[5mC]*kT; antisense) [Compound 716578]
[4]
  YAP1 (% UTC): 102 % UTC

## 716375 (kG*kA*kG*dA*d[5mC]*dT*dA*d[5mC]*dT*d[5mC]*d[5mC]*dA*dG*kT*kG*kG; antisense) [Compound 716375]
[6]
  YAP1 (% UTC): 63 % UTC

## 1075658 (kG*kT*kA*dA*dA*dA*dA*dA*d[5mC]*dG*dG*dT*dT*kT*kT*kT; antisense) [Compound 1075658]
[1]
  YAP1 (% UTC): 103 % UTC

## 1074760 (kA*k[5mC]*kA*dA*d[5mC]*d[5mC]*dA*dA*dG*dA*dA*dG*d[5mC]*kA*kG*kT; antisense) [Compound 1074760]
[7]
  YAP1 (% UTC): 11 % UTC

## 1074954 (antisense k[5mC]*k[5mC]*kG*dG*dG*dT*dT*dT*dT*dT*dG*dT*d[5mC]*kA*kT*k[5mC]) [Compound 1074954]
[1]
  YAP1 (% UTC): 91 % UTC

## 1076005 (kG*kT*kA*d[5mC]*dA*dA*dA*dA*dT*d[5mC]*dT*d[5mC]*d[5mC]*kA*kG*kG; antisense) [Compound 1076005]
Table 19, A-431 cells, 5,000 cells per well, free uptake, 2,000 nM modified oligonucleotide, approx. 48 hours, RTS4814, normalized to RIBOGREEN, Yap1 mRNA as percent of untreated control
  YAP1 (% UTC): 69 % UTC

## 1075122 (kG*kA*kA*dA*dA*dT*dT*dA*dG*d[5mC]*d[5mC]*dT*dA*k[5mC]*k[5mC]*kA; antisense) [compound 1075122]
[10]
  YAP1 (% UTC): 16 % UTC

## 716504 (kA*kT*kA*dA*dA*dA*dG*d[5mC]*d[5mC]*dT*dT*dA*dG*kA*kG*kT; antisense) [Compound 716504]
[6]
  YAP1 (% UTC): 112 % UTC

## 1074119 (antisense kG*k[5mC]*kA*d[5mC]*dT*d[5mC]*dG*dG*dA*d[5mC]*d[5mC]*dT*dG*k[5mC]*kG*kG) [Compound 1074119]
Table 21, Yap1 mRNA, percent of untreated control, 3-10-3 cEt gapmers targeting SEQ ID NO.: 1 and 2
  YAP1 (% UTC): 71 % UTC

## 1076104 (kA*k[5mC]*kG*dA*dA*dA*dT*dA*dG*dT*dA*dA*d[5mC]*kT*kG*kT; antisense) [Compound 1076104]
[7]
  YAP1 (% UTC): 24 % UTC

## 1075442 (antisense kT*kA*kT*dT*dA*dG*dT*dT*d[5mC]*dT*dA*d[5mC]*dG*kA*kT*kT) [compound 1075442]
[10]
  YAP1 (% UTC): 71 % UTC

## 1076019 (k[5mC]*kA*k[5mC]*dT*dA*dA*dT*dA*dG*dG*dA*dT*dG*kG*kA*kT; antisense) [compound 1076019]
[9]
  YAP1 (% UTC): 12 % UTC

## 1074308 (antisense kG*k[5mC]*kA*dT*dT*dG*d[5mC]*d[5mC]*dT*dG*dT*dG*dG*k[5mC]*k[5mC]*kT) [Compound 1074308]
[5]
  YAP1 (% UTC): 132 % UTC

## 1074280 (antisense kG*kG*kT*d[5mC]*dA*dA*dG*d[5mC]*d[5mC]*dT*dT*dG*dG*kG*kT*k[5mC]) [Compound 1074280]
[7]
  YAP1 (% UTC): 43 % UTC

## 1074642 (antisense kG*kG*kG*d[5mC]*d[5mC]*dA*dA*dA*dA*dT*dA*d[5mC]*dT*kT*kA*kG) [compound 1074642]
[10]
  YAP1 (% UTC): 78 % UTC

## 1076171 (kA*kT*kT*dA*dG*dT*dA*dA*dA*dG*dA*dG*dT*kA*k[5mC]*kT; antisense) [Compound 1076171]
[11]
  YAP1 (% UTC): 30 % UTC

## 1076563 (k[5mC]*kA*kA*dA*dG*dT*dA*dA*dT*dT*dA*dA*dA*k[5mC]*kG*kA; antisense) [compound 1076563]
[9]
  YAP1 (% UTC): 91 % UTC

## 716565 (kG*kG*kG*d[5mC]*dT*dA*dA*d[5mC]*dT*dA*d[5mC]*dA*dT*kT*kG*k[5mC]; antisense) [Compound 716565]
[8]
  YAP1 (% UTC): 129 % UTC

## 1074539 (antisense k[5mC]*kT*kA*dT*d[5mC]*d[5mC]*dA*d[5mC]*dA*dG*dT*dA*dA*kT*kA*kG) [Compound 1074539]
[11]
  YAP1 (% UTC): 62 % UTC

## 1076561 (kG*kT*kA*dT*dA*d[5mC]*d[5mC]*dA*dA*dG*d[5mC]*dT*dA*k[5mC]*kT*k[5mC]; antisense) [compound 1076561]
[3]
  YAP1 (% UTC): 22 % UTC

## 1076068 (k[5mC]*kT*kA*dA*dA*dA*dT*dG*dA*d[5mC]*d[5mC]*dT*dT*kA*kG*k[5mC]; antisense) [Compound 1076068]
[5]
  YAP1 (% UTC): 73 % UTC

## 1074504 (kT*k[5mC]*kG*dA*dG*dA*dT*dT*dT*dA*dA*dA*dT*kA*kA*kG; antisense) [Compound 1074504]
[7]
  YAP1 (% UTC): 76 % UTC

## 1075891 (antisense kA*kG*kA*dT*dT*dA*dA*dA*dA*dG*dT*dA*dG*kG*k[5mC]*k[5mC]) [compound 1075891]
[9]
  YAP1 (% UTC): 89 % UTC

## 1076435 (k[5mC]*kG*kT*dA*dA*dA*d[5mC]*dA*dT*d[5mC]*dA*dT*d[5mC]*kT*k[5mC]*kT; antisense) [compound 1076435]
[9]
  YAP1 (% UTC): 12 % UTC

Reference: US11214803B2, “Modulators of YAP1 expression” (Ionis Pharmaceuticals, Inc., priority 2019, dated 2022)
